Read-outs that look alike come from different tables or passages of the source.
Assays:
[1] = system: BCL6 reporter construct (3xBCL6-TK-Luc) in SuDHL4 cells; experiment: Cell-based luciferase assay
Protocol: Cell-Based Luciferase Assay
A BCL6 reporter construct containing three copies of the consensus BCL6 binding site, the TK promoter, and the firefly luciferase gene was stably expressed in SuDHL4 cells after lentivirus infection and selection with Blasticidin. SuDHL4-3×BCL6-TK-Luc cells were seeded into a Viewplate 384-well assay dish at 15,000 cells/well in 25 ul medium (Alpha-MEM high glucose containing 10% FBS, 25 mM HEPES, […] GlutaMAX, 100 ug/ml Normocin, and […] Gentamycin, Invitrogen). A HP D300 digital dispenser was used to dose cells with DMSO or test compounds across a 10-point range of concentrations (high dose of 10 uM), and cultures were grown in a humidified 5% CO2 incubator at 37° C. After two days, plates were removed from the incubator and equilibrated to room temperature. An equal volume of neolite reporter gene assay reagent was added to each well, and samples were processed according to manufacturer's instructions (Perkin Elmer). Luminescent signal was measured using an Envision plate reader equipped with a US-Luminescence detector.

BCL6 BTB domain = BCL6 BTB domain (Homo sapiens (Human), UniProt P41182); experiment: Surface plasmon resonance (SPR) assay; type: binding; conditions: BCL6 BTB domain captured on SA chip, single cycle kinetics
Karpas422 cells = experiment: Tumor cell growth inhibition assay; type: cell-based
Protocol: Tumor Cell Growth inhibition Assay
Karpas422 cells were seeded into a 96-well plate at 2,000 cells/well in 150 ul medium (Alpha-MEM containing 10% FBS, […] Normocin, and […] Gentamycin, Invitrogen). A HP D300 digital dispenser was used to dose cells with DMSO or test compounds across a 10-point range of concentrations (high dose of 5 uM), and cultures were grown in a humidified 5% CO2 incubator at 37° C. After six days, plates were removed from incubator and equilibrated to room temperature. An equal volume of ATPlite assay reagent was added to each well, and samples were processed according to manufacturer's instructions (Perkin Elmer). Luminescent signal was measured using an Envision plate reader equipped with a US-Luminescence detector.

[2] = Homo sapiens, SU-DHL-4, 48 h, read-out: Luciferase-Assay EC50, uM), SuDHL4-3xBCL6-TK-Luc cells, two days, high dose 10 uM
[3] = Homo sapiens, KARPAS-422, 144 h, read-out: Tumor Growth Inhibition in Karpas-422 (IC50, uM), Karpas422 cells, six days, ATPlite

| Structure (SMILES) | EC50 [1, 2] [µM] | Kd (BCL6 BTB domain) [nM] | IC50 (Karpas422 cells; [3]) [µM] | EC50 ([1]; read-out: Luciferase-Assay EC50, SuDHL4-3xBCL6-TK-Luc cells, two days, high dose 10 uM) [µM] | IC50 (Karpas422 cells; read-out: Tumor Growth Inhibition in Karpas-422 (IC50), Karpas422 cells, six days, ATPlite) [µM] |
| --- | --- | --- | --- | --- | --- |
| C[C@H]1COCCN1c1cc(NC(=O)Cn2cc(-c3cc(C(N)=O)c(O)c(Cl)c3F)c3c(=O)n(C)cnc32)c(Cl)c(F)n1 [Compound I-409] | 2.34 | 95.2 | 1.82 |  |  |
| CCN1CCN(c2cc(NC(=O)Cn3cc(-c4cc(Cl)c(O)c(C(N)=O)c4)c4c(=O)n(C)c(C)nc43)c(Cl)cn2)[C@@H](C)C1 [Compound I-431] | 0.193 | 30.7 | 0.175 |  |  |
| Cn1cnc2c(c(-c3cc(Cl)c(O)c(C(N)=O)c3)cn2CC(=O)Nc2cc(N3CC(C)(C)NC(C)(C)C3)ncc2Cl)c1=O [Compound I-201] | 0.317 | 11.1 | 0.155 |  |  |
| Cc1nc2c(c(-c3cc(C(N)=O)c(O)c(F)c3F)cn2CC(=O)Nc2cc(N3CCN(C4COC4)C[C@@H]3C)nc(F)c2Cl)c(=O)n1C [Compound I-429] | 0.162 | 10.9 | 0.154 |  |  |
| COc1cc(-c2cn(CC(=O)Nc3cc(N4CCOC[C@@H]4C)ncc3Cl)c3ncn(C)c(=O)c23)cc(C(N)=O)c1O [Compound I-153] | 0.313 | 4.14 | 0.176 |  |  |
| Cn1cnc2c(c(-c3cc(Cl)c(O)c(C(N)=O)c3)cn2CC(=O)Nc2cc(N3C[C@H]4CC[C@@H](C3)N4CC(F)(F)F)ncc2Cl)c1=O [Compound I-474] | 0.216 | 35.8 | 0.237 |  |  |
| C[C@H]1CN(C2COC2)CCN1c1cc(NC(=O)Cn2cc(-c3cc(C(N)=O)c(O)c(F)c3F)c3c(=O)n(C)cnc32)c(Cl)c(F)n1 [Compound I-437] | 0.231 | 11.3 | 0.124 |  |  |
| Cn1cnc2c(c(-c3cc(Cl)c(O)c(C(N)=O)c3)cn2CC(=O)Nc2c(Cl)cnc(N3CCOCC3)c2F)c1=O [Compound I-191] |  | 122 |  | 5.42 | 4.72 |
| CN1CCCN(c2cc(NC(=O)Cn3cc(-c4cc(F)c(O)c(C(N)=O)c4)c4c(=O)n(C)cnc43)c(Cl)cn2)CC1 [Compound I-289] | 1.18 | 16 | 0.652 |  |  |
| C[C@H]1COCCN1c1cc(NC(=O)Cn2cc(-c3cc(C(N)=O)c(O)c4c3OCO4)c3c(=O)n(C)cnc32)c(Cl)cn1 [Compound I-302] | 0.0865 | 5.05 | 0.0528 |  |  |
| Cn1cnc2c(c(-c3cc(Cl)c(O)c(C(N)=O)c3)cn2CC(=O)Nc2cc3nccn3cc2Cl)c1=O [Compound I-174] | 10 | 2950 | 10 |  |  |
| Cn1c(NCCC(F)(F)F)nc2c(c(-c3cc(Cl)c(O)c(C(N)=O)c3)cn2CC(=O)Nc2cc(N3CCOCC3)ncc2Cl)c1=O [Compound I-134] | 0.477 | 97 | 0.57 |  |  |
| Cn1cnc2c(c(-c3cc(Cl)c(O)c(C(N)=O)c3)cn2CC(=O)Nc2cc(F)nc(F)c2F)c1=O [Compound I-208] | 5.15 | 567 | 1.2 |  |  |
| CN(C)c1cc(NC(=O)Cn2cc(-c3cc(C(N)=O)c(O)c(F)c3F)c3c(=O)n(C)cnc32)c(Cl)cn1 [Compound I-297] | 0.395 | 57.9 | 0.846 |  |  |
| Cc1nc2c(c(-c3cc(C(N)=O)c(O)c(F)c3F)cn2CC(=O)Nc2cc(N3CCN(C4CC4)C[C@@H]3C)ncc2Cl)c(=O)n1C [Compound I-379] | 0.664 | 68.6 | 0.853 |  |  |
| Cn1cnc2c(c(-c3cc(Cl)c(O)c(C(N)=O)c3)cn2CC(=O)Nc2cc(N3C4CCC3COC4)ncc2Cl)c1=O [Compound I-279] | 0.468 | 10.2 | 0.197 |  |  |
| Cn1cnc2c(c(-c3cc(Cl)c(O)c(C(N)=O)c3)cn2CC(=O)Nc2ccc(C#N)cc2Cl)c1=O [Compound I-384] | 1.18 | 115 | 0.8 |  |  |
| CN1CCOC2CN(c3cc(NC(=O)Cn4cc(-c5cc(Cl)c(O)c(C(N)=O)c5)c5c(=O)n(C)c(C(F)(F)F)nc54)c(Cl)cn3)CC21 (stereo not drawn) [Compound I-395] | 0.168 | 48.3 | 0.669 |  |  |
| COCCN1CCN(c2cc(NC(=O)Cn3cc(-c4cc(Cl)c(O)c(C(N)=O)c4)c4c(=O)n(C)cnc43)c(Cl)c(F)n2)[C@@H](C)C1 [Compound I-447] | 0.113 | 9.02 | 0.0709 |  |  |
| Cn1cnc2c(c(-c3cc(F)c(O)c(C(N)=O)c3)cn2CC(=O)Nc2cc(N3CCOCC3)ncc2F)c1=O [Compound I-217] | 0.727 | 26.6 | 0.382 |  |  |
| Cn1cnc2c(c(-c3cc(C(N)=O)c(O)c(Cl)c3F)cn2CC(=O)Nc2cc(N3CCOCC3)ncc2Cl)c1=O [Compound I-169] | 1.96 | 206 | 1.89 |  |  |
| C[C@H]1CN(C)CCN1c1cc(NC(=O)Cn2cc(-c3cc(Cl)c(O)c(C(N)=O)c3)c3c(=O)n(C)c(-c4ccccc4)nc32)c(Cl)cn1 [Compound I-260, (S)-3-chloro-5-(7-(2-((5-chloro-2-(2,4-dimethylpiperazin-1-yl)pyridin-4-yl)amino)-2-oxoethyl)-3-methyl-4-oxo-2-phenyl-4,7-dihydro-3H-pyrrolo[2,3-d]pyrimidin-5-yl)-2-hydroxybenzamide] | 10 | 58.8 | 0.238 |  |  |
| Cc1nc2c(c(-c3cc(C(N)=O)c(O)c(F)c3F)cn2CC(=O)Nc2cc(N3CCOC[C@@H]3C)ncc2Cl)c(=O)n1C [Compound I-249] | 0.689 | 77.3 | 0.736 |  |  |
| COc1cc(-c2cn(CC(=O)Nc3cc(N4CCOCC4)ncc3Cl)c3nc(C)n(C)c(=O)c23)cc(C(N)=O)c1O [Compound I-123] | 0.095 | 7 | 0.216 |  |  |
| C[C@H]1CN(CC2CC2)CCN1c1cc(NC(=O)Cn2cc(-c3cc(Cl)c(O)c(C(N)=O)c3)c3c(=O)n(C)cnc32)c(Cl)c(F)n1 [Compound I-444] | 0.239 | 19.8 | 0.104 |  |  |
| C[C@H]1COCCN1c1cc(NC(=O)Cn2cc(-c3cc(Cl)c(O)c(C(N)=O)c3)c3c(=O)[nH]c(Cl)nc32)c(Cl)cn1 [Compound I-294] | 1.43 | 9.95 | 1.88 |  |  |
| C[C@H]1COCCN1c1cc(NC(=O)Cn2cc(-c3cc(Cl)c(O)c(C(N)=O)c3)c3c(=O)n(CC#Cc4cnn(C)c4)cnc32)c(Cl)cn1 [Compound I-82] | 0.133 | 6 | 0.034 |  |  |
| CCN(C)c1nc2c(c(-c3cc(Cl)c(O)c(C(N)=O)c3)cn2CC(=O)Nc2cc(N3CCOC[C@@H]3C)ncc2Cl)c(=O)n1C [Compound I-269, (S)-3-chloro-5-(7-(2-((5-chloro-2-(3-methylmorpholino)pyridin-4-yl)amino)-2-oxoethyl)-2-(ethyl(methyl)amino)-3-methyl-4-oxo-4,7-dihydro-3H-pyrrolo[2,3-d]pyrimidin-5-yl)-2-hydroxybenzamide] | 8.55 | 157 | 1.7 |  |  |
| Cn1cnc2c(c(-c3cc(Cl)c(O)c(C(N)=O)c3)cn2CC(=O)Nc2cc(N3CC4CC3CO4)ncc2Cl)c1=O (stereo not drawn) [Compound I-154] | 0.469 | 33.9 | 0.559 |  |  |
| Cn1cnc2c(c(-c3cc(Cl)c(O)c(C(N)=O)c3)cn2CC(=O)Nc2cc(N3CCC4(CCOC4)C3)ncc2Cl)c1=O (stereo not drawn) [Compound I-76] | 0.155 | 12 | 0.112 |  |  |
